Measured values published in PubChem BioAssay AID1963846 (Molecular Pharmacology Branch, DTP, NCI, 2024).

System: 454973-116-R2-J3-PDC complex spheroid viability
Assay: Anticancer human tumor 454973-116-R2-J3-PDC patient-derived pancreatic carcinoma cell line growth inhibition [POLQ]
Settings: for IC50: curve of first compound; for viability, T/C: stronger effect = lower value; active = viability on the fitted dose curve at most 10% of control; inactive = the rest
Summary of the method: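 Growth inhibition in 3D: complex spheroids (tumor PDC, HUVEC, MSC) treated with POLQ inhibitor combinations; where Cmax unknown, highest tested concentration 10 microM, except SN-38 at 1 microM.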

[1] = second compound 0.0316 µM, first compound 0.0316 µM
[2] = second compound 0.0316 µM, first compound 0.1 µM
[3] = second compound 0.0316 µM, first compound 0.316 µM
[4] = second compound 0.0316 µM, first compound 1 µM
[5] = second compound 0.0316 µM, first compound 3.16 µM
[6] = second compound 0.0316 µM, first compound 10 µM
[7] = second compound 0.1 µM, first compound 0.0316 µM
[8] = second compound 0.1 µM, first compound 0.1 µM
[9] = second compound 0.1 µM, first compound 0.316 µM
[10] = second compound 0.1 µM, first compound 1 µM
[11] = second compound 0.1 µM, first compound 3.16 µM
[12] = second compound 0.1 µM, first compound 10 µM
[13] = second compound 0.316 µM, first compound 0.0316 µM
[14] = second compound 0.316 µM, first compound 0.1 µM
[15] = second compound 0.316 µM, first compound 0.316 µM
[16] = second compound 0.316 µM, first compound 1 µM
[17] = second compound 0.316 µM, first compound 3.16 µM
[18] = second compound 0.316 µM, first compound 10 µM
[19] = second compound 1 µM, first compound 0.0316 µM
[20] = second compound 1 µM, first compound 0.1 µM
[21] = second compound 1 µM, first compound 0.316 µM
[22] = second compound 1 µM, first compound 1 µM
[23] = second compound 1 µM, first compound 3.16 µM
[24] = second compound 1 µM, first compound 10 µM
[25] = second compound 3.16 µM, first compound 0.0316 µM
[26] = second compound 3.16 µM, first compound 0.1 µM
[27] = second compound 3.16 µM, first compound 0.316 µM
[28] = second compound 3.16 µM, first compound 1 µM
[29] = second compound 3.16 µM, first compound 3.16 µM
[30] = second compound 3.16 µM, first compound 10 µM
[31] = second compound 10 µM, first compound 0.0316 µM
[32] = second compound 10 µM, first compound 0.1 µM
[33] = second compound 10 µM, first compound 0.316 µM
[34] = second compound 10 µM, first compound 1 µM
[35] = second compound 10 µM, first compound 3.16 µM
[36] = second compound 10 µM, first compound 10 µM
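Note: spheroids exposed to drugs for seven days before measurement.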
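Throughout, for viability, T/C: percent viability relative to DMSO vehicle control wells taken as 100%.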

CC1COCCN1c1cc(C2(S(C)(=N)=O)CC2)nc(-c2ccnc3[nH]ccc23)n1 (stereo not drawn) + Cc1cccc(N(C)C(=O)C2C(O)CCN2c2nc(C)cc(C(F)(F)F)c2C#N)c1
6.9 µM: IC50 (second compound 0.1 µM)
5.9 µM: IC50 (second compound 10 µM)
6.39 µM: IC50 (second compound 0.0316 µM)
5.75 µM: IC50 (second compound 0.316 µM)
6.6 µM: IC50 (second compound 3.16 µM)
5.92 µM: IC50 (second compound 1 µM)
inactive: viability, T/C [1] 111% | viability, T/C [2] 105% | viability, T/C [3] 103% | viability, T/C [4] 108% | viability, T/C [5] 85.2% | viability, T/C [6] 27.4% | viability, T/C [7] 111% | viability, T/C [8] 116% | viability, T/C [9] 105% | viability, T/C [10] 104% | viability, T/C [11] 75.2% | viability, T/C [12] 37.9% | viability, T/C [13] 104% | viability, T/C [14] 107% | viability, T/C [15] 111% | viability, T/C [16] 110% | viability, T/C [17] 72.4% | viability, T/C [18] 29.4% | viability, T/C [19] 111% | viability, T/C [20] 113% | viability, T/C [21] 114% | viability, T/C [22] 109% | viability, T/C [23] 75% | viability, T/C [24] 29.1% | viability, T/C [25] 117% | viability, T/C [26] 112% | viability, T/C [27] 113% | viability, T/C [28] 96.3% | viability, T/C [29] 80.8% | viability, T/C [30] 33% | viability, T/C [31] 114% | viability, T/C [32] 112% | viability, T/C [33] 106% | viability, T/C [34] 102% | viability, T/C [35] 74.6% | viability, T/C [36] 28.8%

CCCS(=O)(=O)Nc1ccc(F)c(C(=O)c2c[nH]c3ncc(-c4ccc(Cl)cc4)cc23)c1F + Cc1cccc(N(C)C(=O)C2C(O)CCN2c2nc(C)cc(C(F)(F)F)c2C#N)c1
8.92 µM: IC50 (second compound 0.316 µM)
8.18 µM: IC50 (second compound 0.0316 µM)
8.4 µM: IC50 (second compound 1 µM)
8.77 µM: IC50 (second compound 0.1 µM)
6.95 µM: IC50 (second compound 10 µM)
inactive: viability, T/C [1] 108% | viability, T/C [2] 116% | viability, T/C [3] 112% | viability, T/C [4] 118% | viability, T/C [5] 113% | viability, T/C [6] 36.7% | viability, T/C [7] 105% | viability, T/C [8] 111% | viability, T/C [9] 115% | viability, T/C [10] 122% | viability, T/C [11] 111% | viability, T/C [12] 42.1% | viability, T/C [13] 108% | viability, T/C [14] 116% | viability, T/C [15] 118% | viability, T/C [16] 113% | viability, T/C [17] 123% | viability, T/C [18] 42.7% | viability, T/C [19] 136% | viability, T/C [20] 110% | viability, T/C [21] 114% | viability, T/C [22] 111% | viability, T/C [23] 126% | viability, T/C [24] 37.3% | viability, T/C [25] 117% | viability, T/C [26] 110% | viability, T/C [27] 104% | viability, T/C [28] 105% | viability, T/C [29] 115% | viability, T/C [30] 36.8% | viability, T/C [31] 120% | viability, T/C [32] 112% | viability, T/C [33] 110% | viability, T/C [34] 111% | viability, T/C [35] 118% | viability, T/C [36] 20.3%
8.13 µM: IC50 (second compound 3.16 µM)

CNCc1ccc(-c2[nH]c3cc(F)cc4c3c2CCNC4=O)cc1 + Cc1cccc(N(C)C(=O)C2C(O)CCN2c2nc(C)cc(C(F)(F)F)c2C#N)c1
> 10 µM: IC50 (second compound 0.0316 µM) | IC50 (second compound 0.1 µM) | IC50 (second compound 0.316 µM) | IC50 (second compound 1 µM) | IC50 (second compound 3.16 µM) | IC50 (second compound 10 µM)
inactive: viability, T/C [1] 110% | viability, T/C [2] 96.1% | viability, T/C [3] 101% | viability, T/C [4] 103% | viability, T/C [5] 101% | viability, T/C [6] 79.1% | viability, T/C [7] 94% | viability, T/C [8] 108% | viability, T/C [9] 97.8% | viability, T/C [10] 102% | viability, T/C [11] 99.4% | viability, T/C [12] 83% | viability, T/C [13] 106% | viability, T/C [14] 102% | viability, T/C [15] 107% | viability, T/C [16] 98.9% | viability, T/C [17] 104% | viability, T/C [18] 85.8% | viability, T/C [19] 108% | viability, T/C [20] 111% | viability, T/C [21] 103% | viability, T/C [22] 97.2% | viability, T/C [23] 100% | viability, T/C [24] 86.6% | viability, T/C [25] 109% | viability, T/C [26] 105% | viability, T/C [27] 105% | viability, T/C [28] 106% | viability, T/C [29] 106% | viability, T/C [30] 82.9% | viability, T/C [31] 118% | viability, T/C [32] 105% | viability, T/C [33] 101% | viability, T/C [34] 95.6% | viability, T/C [35] 106% | viability, T/C [36] 74.9%

COc1cccc(OCCCN)c1-c1cc(Nc2cnc(C#N)cn2)n[nH]1 + Cc1cccc(N(C)C(=O)C2C(O)CCN2c2nc(C)cc(C(F)(F)F)c2C#N)c1
0.016 µM: IC50 (second compound 0.1 µM) | IC50 (second compound 0.316 µM)
0.0136 µM: IC50 (second compound 10 µM)
0.0134 µM: IC50 (second compound 1 µM)
0.0178 µM: IC50 (second compound 0.0316 µM)
inactive: viability, T/C (second compound 0.0316 µM, first compound 0.00316 µM) 109% | viability, T/C (second compound 0.0316 µM, first compound 0.01 µM) 78.1% | viability, T/C [1] 21.9% | viability, T/C (second compound 0.1 µM, first compound 0.00316 µM) 95% | viability, T/C (second compound 0.1 µM, first compound 0.01 µM) 75.2% | viability, T/C [7] 13.4% | viability, T/C (second compound 0.316 µM, first compound 0.00316 µM) 102% | viability, T/C (second compound 0.316 µM, first compound 0.01 µM) 77.6% | viability, T/C [13] 10% | viability, T/C (second compound 1 µM, first compound 0.00316 µM) 104% | viability, T/C (second compound 1 µM, first compound 0.01 µM) 64.2% | viability, T/C (second compound 3.16 µM, first compound 0.00316 µM) 112% | viability, T/C (second compound 3.16 µM, first compound 0.01 µM) 63% | viability, T/C (second compound 10 µM, first compound 0.00316 µM) 98.6% | viability, T/C (second compound 10 µM, first compound 0.01 µM) 64.2% | viability, T/C [31] 11.1%
0.0132 µM: IC50 (second compound 3.16 µM)
active: viability, T/C [2] 7.22% | viability, T/C [3] 5.75% | viability, T/C [4] 4.08% | viability, T/C [8] 7.01% | viability, T/C [9] 6.2% | viability, T/C [10] 4.45% | viability, T/C [14] 6.6% | viability, T/C [15] 5.64% | viability, T/C [16] 5.58% | viability, T/C [19] 8.06% | viability, T/C [20] 5.29% | viability, T/C [21] 5.1% | viability, T/C [22] 4.45% | viability, T/C [25] 9.04% | viability, T/C [26] 6.82% | viability, T/C [27] 5.92% | viability, T/C [28] 6.01% | viability, T/C [32] 5.73% | viability, T/C [33] 6.26% | viability, T/C [34] 5.41%
